This is an account of results in ChEMBL document CHEMBL3046556, “Microwave-assisted synthesis and antimicrobial screening of new imidazole derivatives bearing 4-thiazolidinone nucleus” (2013).

Converted amounts (≈) assume the structure as drawn. The source made the active and inactive calls. No cut-off for these calls is given here.

Experiment [1] deals with Aspergillus clavatus. The experiment is described as follows: Antifungal activity against Aspergillus clavatus MTCC 1323 assessed as growth inhibition after 48 hr by broth dilution method. Type of experiment: functional. Conditions: MTCC 1323, 48 h.
In experiment [2] the test system is Pseudomonas aeruginosa. The experiment is described as follows: Antibacterial activity against Pseudomonas aeruginosa MTCC 1688 assessed as growth inhibition after 24 hr by NCCLS broth dilution method. It is filed as functional. Conditions: MTCC 1688, 24 h. Background: In broth dilution the organism is exposed to a series of concentrations in liquid medium.
Experiment [3] relates to Escherichia coli. Kind of experiment: Antibacterial activity against Escherichia coli MTCC 443 assessed as growth inhibition after 24 hr by NCCLS broth dilution method. Type of experiment: functional. The note with it: MTCC 443, 24 h.
Experiment [4] concerns Aspergillus niger. Kind of experiment: Antifungal activity against Aspergillus niger MTCC 282 assessed as growth inhibition after 48 hr by broth dilution method. Type of experiment: functional. Conditions: MTCC 282, 48 h.
The subject of experiment [5] is Candida albicans. Kind of experiment: Antifungal activity against Candida albicans MTCC 227 assessed as growth inhibition after 48 hr by broth dilution method. It is filed as functional. The note with it: MTCC 227, 48 h.
Experiment [6] relates to Streptococcus pyogenes. Kind of experiment: Antibacterial activity against Streptococcus pyogenes MTCC 442 assessed as growth inhibition after 24 hr by NCCLS broth dilution method. It is filed as functional. The note with it: MTCC 442, 24 h.
The test system of a further experiment is Staphylococcus aureus. The experiment is described as follows: Antibacterial activity against Staphylococcus aureus MTCC 96 assessed as growth inhibition after 24 hr by NCCLS broth dilution method. The note with it: MTCC 96, 24 h. Type of experiment: functional.
The subject of experiment [7] is Streptococcus pyogenes. The experiment is described as follows: Antibacterial activity against Streptococcus pyogenes MTCC 442 assessed as growth inhibition at 12.5 to 1000 ug/mL after 24 hr by NCCLS broth dilution method. It is filed as functional, organism-based.
The test system of experiment [8] is Aspergillus niger. Kind of experiment: Antifungal activity against Aspergillus niger MTCC 282 assessed as growth inhibition at 12.5 to 1000 ug/mL after 48 hr by broth dilution method. Type of experiment: functional, organism-based.
Experiment [9] relates to Pseudomonas aeruginosa. The experiment is described as follows: Antibacterial activity against Pseudomonas aeruginosa MTCC 1688 assessed as growth inhibition at 12.5 to 1000 ug/mL after 24 hr by NCCLS broth dilution method. Type of experiment: functional, organism-based.
Experiment [10] deals with Aspergillus clavatus. The experiment is described as follows: Antifungal activity against Aspergillus clavatus MTCC 1323 assessed as growth inhibition at 12.5 to 1000 ug/mL after 48 hr by broth dilution method. Type of experiment: functional, organism-based.
The subject of experiment [11] is Candida albicans. The experiment is described as follows: Antifungal activity against Candida albicans MTCC 227 assessed as growth inhibition at 12.5 to 1000 ug/mL after 48 hr by broth dilution method. Type of experiment: functional, organism-based.
Experiment [12] concerns Escherichia coli. The experiment is described as follows: Antibacterial activity against Escherichia coli MTCC 443 assessed as growth inhibition at 12.5 to 1000 ug/mL after 24 hr by NCCLS broth dilution method. It is filed as functional, organism-based.

Turning to `CC1=N/C(=C\c2ccc([N+](=O)[O-])cc2)C(=O)N1c1ccc(/C(C)=N/N=C2/NC(=O)CS2)cc1`, the minimum inhibitory concentration (MIC) (usually the least concentration at which growth counts as inhibited) in the experiment with Aspergillus clavatus [1] was 100 µg/mL (≈ 216 µM); in the experiment on Pseudomonas aeruginosa [2], 100 µg/mL (≈ 216 µM); in the experiment on Escherichia coli [3], 500 µg/mL (≈ 1080 µM); in the experiment on Aspergillus niger [4], 250 µg/mL (≈ 541 µM); with Candida albicans [5], 500 µg/mL (≈ 1080 µM); in the experiment on Streptococcus pyogenes [6] it was 250 µg/mL (≈ 541 µM). For the same compound, in the experiment with Staphylococcus aureus, the MIC was 250 µg/mL (≈ 541 µM).
Take `CC1=N/C(=C\c2ccc(F)cc2)C(=O)N1c1ccc(/C(C)=N/N=C2/NC(=O)CS2)cc1`: the MIC worked out at 500 µg/mL (≈ 1150 µM) with Aspergillus clavatus [1]; 250 µg/mL (≈ 574 µM) in the experiment on Pseudomonas aeruginosa [2]; 250 µg/mL (≈ 574 µM) with Escherichia coli [3]; 500 µg/mL (≈ 1150 µM) with Aspergillus niger [4]; 500 µg/mL (≈ 1150 µM) in the experiment with Candida albicans [5]; 500 µg/mL (≈ 1150 µM) with Streptococcus pyogenes [6]. Moreover, in the experiment with Staphylococcus aureus, the MIC was 100 µg/mL (≈ 230 µM).
For the compound `CC(=O)c1ccc(N2C(=O)/C(=C\c3ccc(O)cc3)N=C2C)cc1`, the minimum inhibitory concentration (MIC) with Aspergillus clavatus [1], with Escherichia coli [3], in the experiment with Candida albicans [5] and with Staphylococcus aureus was 1000 µg/mL (≈ 3120 µM) throughout. The “growth inhibition (GI)” value in the experiment with Streptococcus pyogenes [7], with Aspergillus niger [8] and with Pseudomonas aeruginosa [9] was “inactive” in each case.
Turning to `CC1=N/C(=C\c2ccccc2F)C(=O)N1c1ccc(/C(C)=N/N=C2/NC(=O)CS2)cc1`, the MIC amounted to 500 µg/mL (≈ 1150 µM) with Aspergillus clavatus [1]; 500 µg/mL (≈ 1150 µM) with Pseudomonas aeruginosa [2]; 250 µg/mL (≈ 574 µM) with Escherichia coli [3]; 500 µg/mL (≈ 1150 µM) in the experiment on Aspergillus niger [4]; 1000 µg/mL (≈ 2300 µM) with Candida albicans [5]; 100 µg/mL (≈ 230 µM) in the experiment with Streptococcus pyogenes [6]. Besides, the MIC in the experiment with Staphylococcus aureus came to 500 µg/mL (≈ 1150 µM).
With `COc1ccccc1/C=C1\N=C(C)N(c2ccc(/C(C)=N/N=C3/NC(=O)CS3)cc2)C1=O`, the minimum inhibitory concentration (MIC) was 25 µg/mL (≈ 55.9 µM) in the experiment with Aspergillus clavatus [1]; 50 µg/mL (≈ 112 µM) in the experiment with Pseudomonas aeruginosa [2]; 250 µg/mL (≈ 559 µM) in the experiment on Escherichia coli [3]; 100 µg/mL (≈ 223 µM) in the experiment with Aspergillus niger [4]; 500 µg/mL (≈ 1120 µM) in the experiment with Candida albicans [5]; 100 µg/mL (≈ 223 µM) with Streptococcus pyogenes [6]. In addition, the MIC in the experiment with Staphylococcus aureus was determined as 50 µg/mL (≈ 112 µM).
As to `CC(=O)c1ccc(N2C(=O)/C(=C\c3ccc(C)cc3)N=C2C)cc1`, the MIC in the experiment with Aspergillus clavatus [1] was found to be 250 µg/mL (≈ 785 µM); with Escherichia coli [3], 1000 µg/mL (≈ 3140 µM); in the experiment with Aspergillus niger [4], 250 µg/mL (≈ 785 µM); in the experiment with Staphylococcus aureus, 1000 µg/mL (≈ 3140 µM). For the same compound, the “growth inhibition (GI)” value in the experiment with Aspergillus clavatus [10], with Streptococcus pyogenes [7], in the experiment with Candida albicans [11] and in the experiment with Pseudomonas aeruginosa [9] was “inactive” in each case.
For `CC1=N/C(=C\c2ccccc2)C(=O)N1c1ccc(/C(C)=N/N=C2/NC(=O)CS2)cc1`, the MIC in the experiment with Aspergillus clavatus [1] was found to be 500 µg/mL (≈ 1200 µM); with Pseudomonas aeruginosa [2] it was 500 µg/mL (≈ 1200 µM); in the experiment on Escherichia coli [3], 1000 µg/mL (≈ 2400 µM); in the experiment with Aspergillus niger [4], 500 µg/mL (≈ 1200 µM); in the experiment on Candida albicans [5], 1000 µg/mL (≈ 2400 µM); with Streptococcus pyogenes [6], 1000 µg/mL (≈ 2400 µM). In the experiment with Staphylococcus aureus, the MIC is 250 µg/mL (≈ 599 µM).
In the case of `COc1ccc(/C=C2\N=C(C)N(c3ccc(/C(C)=N/N=C4/NC(=O)CS4)cc3)C2=O)cc1`, the MIC in the experiment with Aspergillus clavatus [1] was 250 µg/mL (≈ 559 µM); in the experiment on Pseudomonas aeruginosa [2], 100 µg/mL (≈ 223 µM); in the experiment on Escherichia coli [3], 250 µg/mL (≈ 559 µM); in the experiment on Aspergillus niger [4], 250 µg/mL (≈ 559 µM); in the experiment on Candida albicans [5], 500 µg/mL (≈ 1120 µM); with Streptococcus pyogenes [6], 50 µg/mL (≈ 112 µM). In the experiment on Staphylococcus aureus, the MIC is 500 µg/mL (≈ 1120 µM).
Turning to `CC1=N/C(=C/c2ccc(O)cc2)C(=O)N1c1ccc(/C(C)=N/NC(N)=S)cc1`, the “growth inhibition (GI)” value with Escherichia coli [12] was “inactive”. Further, the MIC in the experiment with Pseudomonas aeruginosa [2], in the experiment on Streptococcus pyogenes [6] and in the experiment on Staphylococcus aureus was 500 µg/mL (≈ 1270 µM) throughout. For the same compound, the “growth inhibition (GI)” value in the experiment with Aspergillus clavatus [10], in the experiment with Aspergillus niger [8] and with Candida albicans [11] was “Active” throughout.
As for `CC1=N/C(=C/c2ccc(C)cc2)C(=O)N1c1ccc(/C(C)=N/NC(N)=S)cc1`, in the experiment on Escherichia coli [12], the “growth inhibition (GI)” value is “inactive”. Further, the MIC in the experiment on Pseudomonas aeruginosa [2], in the experiment on Streptococcus pyogenes [6] and in the experiment on Staphylococcus aureus was 500 µg/mL (≈ 1280 µM) in each case. Moreover, the “growth inhibition (GI)” value in the experiment on Aspergillus clavatus [10], with Aspergillus niger [8] and with Candida albicans [11] was “Active” each time.
With `CC1=N/C(=C\c2ccc(O)cc2)C(=O)N1c1ccc(/C(C)=N/N=C2/NC(=O)CS2)cc1`, the MIC was 100 µg/mL (≈ 231 µM) in the experiment on Aspergillus clavatus [1]; 100 µg/mL (≈ 231 µM) in the experiment on Pseudomonas aeruginosa [2]; 50 µg/mL (≈ 115 µM) with Escherichia coli [3]; 50 µg/mL (≈ 115 µM) in the experiment on Aspergillus niger [4]; 50 µg/mL (≈ 115 µM) in the experiment with Candida albicans [5]; 50 µg/mL (≈ 115 µM) with Streptococcus pyogenes [6]. The MIC with Staphylococcus aureus was 50 µg/mL (≈ 115 µM).
In the case of `CC1=N/C(=C\c2ccc(C)cc2)C(=O)N1c1ccc(/C(C)=N/N=C2/NC(=O)CS2)cc1`, the MIC in the experiment with Aspergillus clavatus [1] was 50 µg/mL (≈ 116 µM); in the experiment with Pseudomonas aeruginosa [2], 250 µg/mL (≈ 579 µM); with Escherichia coli [3], 50 µg/mL (≈ 116 µM); in the experiment on Aspergillus niger [4], 12.5 µg/mL (≈ 29 µM); in the experiment with Candida albicans [5] it was 250 µg/mL (≈ 579 µM); in the experiment on Streptococcus pyogenes [6], 25 µg/mL (≈ 57.9 µM). The MIC in the experiment on Staphylococcus aureus was determined as 12.5 µg/mL (≈ 29 µM).
